Like-named read-outs stand apart in the source and are kept apart here.
What was measured:
[1] = system: Mycosphaerella graminicola; Anamorph: Septoria tritici; test: Leaf blotch of wheat (SEPTTR) disease control on wheat seedlings; format: in vivo; conditions: Zymoseptoria tritici, High volume application, 100 ppm
Outline: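 Wheat seedlings (Yuma, first leaf emerged) sprayed to run-off with compound in acetone/water with 110 ppm Triton X-100, or track-sprayed as EC with 0.1% Trycol 5941. Septoria tritici spores inoculated before or after treatment. Dew chambers, then 20 °C greenhouse. Percent disease control derived from severity (0–100%) relative to untreated plants.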

[2] = system: Puccinia triticina; Synonym: Puccinia recondite f. sp. tritici; test: Wheat brown rust (PUCCRT) disease control on wheat seedlings; format: in vivo; conditions: Puccinia triticina, High volume application, 100 ppm
Outline: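 Acetone solutions diluted in nine volumes of water with 110 ppm Triton X-100 sprayed to run-off on first-leaf Yuma wheat seedlings (track spray: EC with 0.1% Trycol 5941). Puccinia triticina spores inoculated before or after treatment; overnight dark dew at 22° C., 100% RH, then greenhouse at 24° C. for disease development.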

[3] = 24 h, 1 Day Protectant, read-out: SEPTTR 1DP disease control
[4] = 72 h, 3 Day Curative, read-out: SEPTTR 3DC disease control
[5] = 24 h, 1 Day Protectant, read-out: PUCCRT 1DP disease control
[6] = 72 h, 3 Day Curative, read-out: PUCCRT 3DC disease control

| SMILES | melting point [°C] | pest or weed control at 100 ppm [1, 3] [%] | pest or weed control at 100 ppm [1, 4] [%] | pest or weed control at 100 ppm [2, 5] [%] | pest or weed control at 100 ppm [2, 6] [%] |
| --- | --- | --- | --- | --- | --- |
| CC(C)CO[C@H]1CCC[C@H](N)C(=O)O[C@@H](C)[C@@H]1OC(=O)C1CC1.Cl | 231 to 235 | – | – | – | – |
| CCCO[C@H]1[C@H](C)OC(=O)[C@@H](N)CCC[C@@H]1OCC(C)C.Cl | 226 to 229 | – | – | – | – |
| CC(C)CO[C@H]1CCC[C@H](N)C(=O)O[C@@H](C)[C@@H]1OC/C=C/C(F)(F)F.Cl | 236 to 240 | – | – | – | – |
| COc1ccc(O[C@H]2CCC[C@H](N)C(=O)O[C@@H](C)[C@@H]2OCC(C)C)cc1.Cl | 198 to 200 | – | – | – | – |
| C[C@@H]1OC(=O)[C@@H](N)CCC[C@H](OC2CCCC2)[C@H]1OC1CCCC1.Cl | 246 to 248 | – | – | – | – |
| CC(C)CO[C@H]1[C@H](C)OC(=O)[C@@H](N)CCC[C@@H]1OCC(C)C.Cl | 188 to 230 | – | – | – | – |
| COc1ccnc(C(=O)N[C@H]2CCC[C@H](OCC(C)C)[C@@H](OCC(C)C)[C@H](C)OC2=O)c1O [F21] | 94 to 95 | 0 to 80 | 0 to 80 | 80 to 100 | 80 to 100 |
| COc1ccnc(C(=O)N[C@H]2CCC[C@H](OCC(C)C)[C@@H](OCCCC(F)(F)F)[C@H](C)OC2=O)c1O [F41] | 108 to 114 | 0 to 80 | 80 to 100 | 80 to 100 | 80 to 100 |
| COc1ccnc(C(=O)N[C@H]2CCC[C@H](Oc3ccc(F)cc3)[C@@H](Oc3ccc(F)cc3)[C@H](C)OC2=O)c1O [F50] | 89 to 91 | 80 to 100 | 0 to 80 | 80 to 100 | 80 to 100 |
| COc1ccnc(C(=O)N[C@H]2CCC[C@H](OCC(C)C)[C@@H](Oc3ccc(F)cc3)[C@H](C)OC2=O)c1O [F55] | 65 to 67 | 80 to 100 | 80 to 100 | 80 to 100 | 80 to 100 |
| COc1ccnc(C(=O)N[C@H]2CCC[C@H](Oc3ccc(F)cc3)[C@@H](OCC(C)C)[C@H](C)OC2=O)c1OCOC(C)=O [F63] | 139 to 141 | 80 to 100 | 80 to 100 | 80 to 100 | 80 to 100 |
| COc1ccnc(C(=O)N[C@H]2CCC[C@H](OC3CCCC3)[C@@H](OC3CCCC3)[C@H](C)OC2=O)c1O [F73] | 61 to 63 | 0 to 80 | 80 to 100 | 80 to 100 | 80 to 100 |

— patent US9681664B2, “Macrocyclic picolinamides as fungicides” (Dow Agrosciences LLC, priority 2012, dated 2017)
